Laboratory results reported in PubChem BioAssay AID216 (DTP/NCI, 2004).
Where “and” joins values, the source holds several entries; their conditions need not be identical. Identical values can stand only once. Inconclusive results and toxic doses are left out.

Test system: BDF1 mice, P288 leukemia ip, survival T/C
Test: NCI In Vivo Anticancer Drug Screen. Data for tumor model P288 Lymphocytic Leukemia (intraperitoneal) in B6D2F1 (BDF1) mice
Settings: endpoint: survival time, mean or median, higher = longer survival
Protocol: The antitumor activity of compounds was measured in mice bearing transplantable tumors. Survival or tumor size were measured and the results are expressed as the measurement made in the treated group (T) divided by the measurement made in the vehicle treated control group (C). The tumor model used in this assay is P288 Lymphocytic Leukemia (intraperitoneal) in B6D2F1 (BDF1) mice

[1] = dose: 25.0 mg/kg/injection, schedule: Q01DX010 (ip), vehicle: saline
[2] = dose: 50.0 mg/kg/injection, schedule: Q01DX010 (ip), vehicle: saline
[3] = dose: 100.0 mg/kg/injection, schedule: Q01DX010 (ip), vehicle: saline
[4] = dose: 200.0 mg/kg/injection, schedule: Q01DX010 (ip), vehicle: saline
[5] = dose: 400.0 mg/kg/injection, schedule: Q01DX010 (ip), vehicle: saline
[6] = dose: 31.0 mg/kg/injection, schedule: Q01DX Z (sc), vehicle: steriod suspending solution
[7] = dose: 62.5 mg/kg/injection, schedule: Q01DX Z (sc), vehicle: steriod suspending solution
[8] = dose: 125.0 mg/kg/injection, schedule: Q01DX Z (sc), vehicle: steriod suspending solution
[9] = dose: 250.0 mg/kg/injection, schedule: Q01DX Z (sc), vehicle: steriod suspending solution
[10] = dose: 500.0 mg/kg/injection, schedule: Q01DX Z (sc), vehicle: steriod suspending solution
[11] = dose: 12.5 mg/kg/injection, schedule: Q01DX Z (ip), vehicle: carboxymethylcellulose (CMC)
[12] = dose: 25.0 mg/kg/injection, schedule: Q01DX Z (ip), vehicle: carboxymethylcellulose (CMC)
[13] = dose: 50.0 mg/kg/injection, schedule: Q01DX Z (ip), vehicle: carboxymethylcellulose (CMC)
[14] = dose: 125.0 mg/kg/injection, schedule: Q01DX Z (ip), vehicle: other
[15] = dose: 250.0 mg/kg/injection, schedule: Q01DX Z (ip), vehicle: other
[16] = dose: 500.0 mg/kg/injection, schedule: Q01DX Z (ip), vehicle: other

## CS(=O)(=O)OCC(O)C(O)C(O)C(O)COS(C)(=O)=O (stereo unspecified)
[1]
  T/C: 100 % of control
[2]
  T/C: 114 % of control and 94 % of control
[3]
  T/C: 111 % of control and 100 % of control
[4]
  T/C: 105 % of control and 100 % of control
[5]
  T/C: 114 % of control

## CC[C@@H](c1ccc(O)cc1)[C@@H](CC)c1ccc(O)cc1
[6]
  T/C: 98 % of control
[7]
  T/C: 98 % of control
[8]
  T/C: 115 % of control and 97 % of control and 100 % of control
[9]
  T/C: 93 % of control and 98 % of control
[10]
  T/C: 107 % of control and 95 % of control
dose: 1000.0 mg/kg/injection, schedule: Q01DX Z (sc), vehicle: steriod suspending solution
  T/C: 93 % of control

## N#C[C@@H]1C2C=CC(CC2)[C@H]1C#N
dose: 0.25 mg/kg/injection, schedule: Q01DX010 (ip), vehicle: saline
  T/C: 89 % of control
dose: 63.0 micrograms/kg/injection, schedule: Q01DX010 (ip), vehicle: saline
  T/C: 105 % of control
dose: 125.0 micrograms/kg/injection, schedule: Q01DX010 (ip), vehicle: saline
  T/C: 105 % of control
dose: 500.0 micrograms/kg/injection, schedule: Q01DX010 (ip), vehicle: saline
  T/C: 111 % of control

## C[C@]12C=CC(=O)C=C1CC[C@@H]1[C@@H]2C(=O)C[C@@]2(C)[C@H]1CC[C@]2(O)C(=O)CO
dose: 12.5 mg/kg/injection, schedule: Q01DX010 (sc), vehicle: steriod suspending solution
  T/C: 105 % of control
dose: 25.0 mg/kg/injection, schedule: Q01DX010 (sc), vehicle: steriod suspending solution
  T/C: 103 % of control
dose: 50.0 mg/kg/injection, schedule: Q01DX010 (sc), vehicle: steriod suspending solution
  T/C: 111 % of control and 87 % of control
dose: 50.0 mg/kg/injection, schedule: Q01DX Z (sc), vehicle: steriod suspending solution
  T/C: 102 % of control and 100 % of control
dose: 100.0 mg/kg/injection, schedule: Q01DX010 (sc), vehicle: steriod suspending solution
  T/C: 100 % of control
dose: 100.0 mg/kg/injection, schedule: Q01DX Z (sc), vehicle: steriod suspending solution
  T/C: 102 % of control and 111 % of control
dose: 200.0 mg/kg/injection, schedule: Q01DX010 (sc), vehicle: steriod suspending solution
  T/C: 97 % of control
dose: 200.0 mg/kg/injection, schedule: Q01DX Z (sc), vehicle: steriod suspending solution
  T/C: 90 % of control and 100 % of control
dose: 400.0 mg/kg/injection, schedule: Q01DX Z (sc), vehicle: steriod suspending solution
  T/C: 94 % of control

## O=C1C(NC(=O)C2CCCCC2)=C(N2CC2)C(=O)C(NC(=O)C2CCCCC2)=C1N1CC1
dose: 18.8 mg/kg/injection, schedule: Q01DX Z (ip), vehicle: carboxymethylcellulose (CMC)
  T/C: 93 % of control
[1]
  T/C: 100 % of control
dose: 37.5 mg/kg/injection, schedule: Q01DX Z (ip), vehicle: carboxymethylcellulose (CMC)
  T/C: 96 % of control
[2]
  T/C: 94 % of control
dose: 75.0 mg/kg/injection, schedule: Q01DX Z (ip), vehicle: carboxymethylcellulose (CMC)
  T/C: 107 % of control
[3]
  T/C: 88 % of control
dose: 150.0 mg/kg/injection, schedule: Q01DX Z (ip), vehicle: carboxymethylcellulose (CMC)
  T/C: 100 % of control
[4]
  T/C: 100 % of control
dose: 300.0 mg/kg/injection, schedule: Q01DX Z (ip), vehicle: carboxymethylcellulose (CMC)
  T/C: 112 % of control
dose: 600.0 mg/kg/injection, schedule: Q01DX Z (ip), vehicle: carboxymethylcellulose (CMC)
  T/C: 105 % of control and 120 % of control
dose: 1200.0 mg/kg/injection, schedule: Q01DX Z (ip), vehicle: carboxymethylcellulose (CMC)
  T/C: 86 % of control

## N#CCSc1ncnc2nc[nH]c12
[11]
  T/C: 97 % of control
[12]
  T/C: 95 % of control
dose: 30.0 mg/kg/injection, schedule: Q01DX010 (ip), vehicle: saline
  T/C: 94 % of control
[13]
  T/C: 114 % of control and 95 % of control
dose: 60.0 mg/kg/injection, schedule: Q01DX010 (ip), vehicle: saline
  T/C: 88 % of control
dose: 120.0 mg/kg/injection, schedule: Q01DX010 (ip), vehicle: saline
  T/C: 100 % of control

## Cn1c(N)nc2nc[nH]c2c1=S
dose: 3.1 mg/kg/injection, schedule: Q01DX Z (ip), vehicle: carboxymethylcellulose (CMC)
  T/C: 90 % of control
dose: 10.0 mg/kg/injection, schedule: Q01DX010 (ip), vehicle: saline
  T/C: 100 % of control
dose: 20.0 mg/kg/injection, schedule: Q01DX010 (ip), vehicle: saline
  T/C: 100 % of control
dose: 40.0 mg/kg/injection, schedule: Q01DX010 (ip), vehicle: saline
  T/C: 100 % of control
dose: 80.0 mg/kg/injection, schedule: Q01DX010 (ip), vehicle: saline
  T/C: 106 % of control

## C[C@]12CCC(=O)C=C1CC[C@H]1[C@@H]3CC[C@](O)(C(=O)CO)[C@@]3(C)C[C@H](O)[C@@]12F
dose: 0.45 mg/kg/injection, schedule: Q01DX Z (sc), vehicle: steriod suspending solution
  T/C: 97 % of control
dose: 0.9 mg/kg/injection, schedule: Q01DX Z (sc), vehicle: steriod suspending solution
  T/C: 98 % of control
dose: 1.8 mg/kg/injection, schedule: Q01DX Z (sc), vehicle: steriod suspending solution
  T/C: 110 % of control and 97 % of control
dose: 3.75 mg/kg/injection, schedule: Q01DX Z (sc), vehicle: steriod suspending solution
  T/C: 106 % of control
dose: 7.5 mg/kg/injection, schedule: Q01DX Z (sc), vehicle: steriod suspending solution
  T/C: 108 % of control
dose: 15.0 mg/kg/injection, schedule: Q01DX Z (sc), vehicle: steriod suspending solution
  T/C: 106 % of control
dose: 30.0 mg/kg/injection, schedule: Q01DX Z (sc), vehicle: steriod suspending solution
  T/C: 108 % of control
dose: 60.0 mg/kg/injection, schedule: Q01DX Z (sc), vehicle: steriod suspending solution
  T/C: 102 % of control
dose: 120.0 mg/kg/injection, schedule: Q01DX Z (sc), vehicle: steriod suspending solution
  T/C: 105 % of control

## [N-]=[N+]=CC(=O)NCC(=O)NN
[14]
  T/C: 96 % of control
[15]
  T/C: 98 % of control
[16]
  T/C: 92 % of control

## C[C@]12CCC(=O)C=C1CC[C@@H]1[C@@H]2CC[C@@]2(C)[C@H]1CC[C@]2(C)O
dose: 16.0 mg/kg/injection, schedule: Q01DX Z (sc), vehicle: steriod suspending solution
  T/C: 104 % of control
[6]
  T/C: 108 % of control
[7]
  T/C: 110 % of control and 116 % of control
[8]
  T/C: 100 % of control
[9]
  T/C: 100 % of control
[10]
  T/C: 101 % of control

## O=C(Nc1ccc(C2=NCCN2)cc1)c1ccc(C(=O)Nc2ccc(C3=NCCN3)cc2)cc1
dose: 3.12 mg/kg/injection, schedule: Q01DX Z (ip), vehicle: carboxymethylcellulose (CMC)
  T/C: 107 % of control
dose: 6.25 mg/kg/injection, schedule: Q01DX Z (ip), vehicle: carboxymethylcellulose (CMC)
  T/C: 94 % of control
dose: 8.0 mg/kg/injection, schedule: Q01DX010 (ip), vehicle: other
  T/C: 158 % of control and 188 % of control
[11]
  T/C: 102 % of control
dose: 16.0 mg/kg/injection, schedule: Q01DX010 (ip), vehicle: other
  T/C: 195 % of control
[12]
  T/C: 102 % of control
dose: 32.0 mg/kg/injection, schedule: Q01DX010 (ip), vehicle: other
  T/C: 154 % of control
[13]
  T/C: 102 % of control
dose: 100.0 mg/kg/injection, schedule: Q01DX Z (ip), vehicle: carboxymethylcellulose (CMC)
  T/C: 204 % of control
dose: 200.0 mg/kg/injection, schedule: Q01DX Z (ip), vehicle: carboxymethylcellulose (CMC)
  T/C: 186 % of control

## N=[N+]=CC(=O)OCC(N)C(=O)O (stereo unspecified)
dose: 3.13 mg/kg/injection, schedule: Q01DX010 (ip), vehicle: saline
  T/C: 94 % of control
dose: 6.25 mg/kg/injection, schedule: Q01DX010 (ip), vehicle: saline
  T/C: 105 % of control
dose: 12.5 mg/kg/injection, schedule: Q01DX010 (ip), vehicle: saline
  T/C: 100 % of control

## Nc1c(I)cc(I)cc1C(=O)O
[1]
  T/C: 100 % of control
[2]
  T/C: 112 % of control and 100 % of control
[3]
  T/C: 112 % of control and 100 % of control
[4]
  T/C: 100 % of control
[5]
  T/C: 106 % of control

## CCN(CC)C(=S)S
[14]
  T/C: 97 % of control
[15]
  T/C: 112 % of control
[16]
  T/C: 104 % of control
dose: 1000.0 mg/kg/injection, schedule: Q01DX Z (ip), vehicle: other
  T/C: 104 % of control
